Marks after values point to notes of the source that are not given here.
Assays:
Format in all cases: in vivo
Botrytis cinerea = test: Test C: preventive spray on tomato seedlings, gray mold, visual disease rating
Source text: (§1) General protocol for preparing test solutions for Tests AG: the test compounds were first dissolved in acetone in an amount equal to 3% of the final volume and then suspended at the desired concentration (in ppm) in acetone and purified water (50/50 mix by volume) containing the surfactant PEG400 (polyhydric alcohol esters). The resulting test suspensions were then used in Tests AG. Compounds were sprayed at a concentration of 250 ppm or other indicated rate to the point of run-off on the test plants. The test solution was sprayed to the point of run-off on tomato seedlings. […] A dash (-) indicates no test results.

Phytophthora infestans = test: whole plant or invertebrate; conditions: tomato seedlings
[1] = tested on: Puccinia recondita f. sp. tritici; test: Test F: preventive spray on wheat seedlings, wheat leaf rust, visual disease rating
Source text: as §1, with “wheat” for “tomato”, “seedlings. The following day the seedlings were inoculated with a spore suspension of Puccinia recondita f. sp. tritici;” for “seedlings.”

[2] = tested on: Erysiphe graminis f. sp. tritici; test: Test G: preventive spray on wheat seedlings, wheat powdery mildew, visual disease rating
Source text: as §1, with “wheat” for “tomato”

Zymoseptoria tritici = test: Test E: preventive spray on wheat seedlings, wheat leaf blotch, visual disease rating
Source text: as §1, with “wheat” for “tomato”

Phakopsora pachyrhizi = test: Test A: preventive spray on soybean seedlings, Asian soybean rust, visual disease rating; conditions: 250 ppm, 100 = 100% disease control, 0 = no control
[3] = 250 ppm, 100 = 100% disease control, 0 = no control

SMILES | Test C disease control rating (Botrytis cinerea; 200 ppm) [%] | Test D disease control rating (Phytophthora infestans; 200 ppm) | Test F disease control rating ([1]; 200 ppm) [%] | Test G disease control rating ([2]; 200 ppm) [%] | Test C disease control rating (Botrytis cinerea; [3]) [%] | Test D disease control rating (Phytophthora infestans; [3]) [%] | Test F disease control rating [1, 3] [%] | Test G disease control rating [2, 3] [%] | other results
Cn1ncc(O)c(C(=O)Nc2ccc3c(c2)OC(F)(F)O3)c1=O [Compound 1] | 0 | 0% | 98 | 40 |  |  |  |  | 
Cc1nn(C)c(=O)c(C(=O)Nc2ccc(OC(F)(F)F)cc2)c1O [Compound 3] | 0 | 0% | 0 | 37 |  |  |  |  | Test E disease control rating (Zymoseptoria tritici; 200 ppm): 0%
CCCn1ncc(O)c(C(=O)Nc2ccc(OC(F)(F)F)cc2)c1=O [Compound 4] | 0 | 99% | 95 | 97 |  |  |  |  | Test E disease control rating (Zymoseptoria tritici; 200 ppm): 0%
CCn1ncc(O)c(C(=O)Nc2ccc(OC(F)(F)F)cc2)c1=O [Compound 5] | 10 | 50% | 84 | 32 |  |  |  |  | Test E disease control rating (Zymoseptoria tritici; 200 ppm): 0%
COc1cnn(C)c(=O)c1C(=O)Nc1ccc(Cl)cc1 [Compound 8] | 0 | 0% | 0 | 0 |  |  |  |  | 
Cn1ncc(O)c(C(=O)Nc2ccc(Cl)cc2)c1=O [Compound 9] | 0 | 0% | 99 | 96 |  |  |  |  | 
Cn1ncc(O)c(C(=O)Nc2ccccc2Cl)c1=O [Compound 10] | 99 | 0% | 97 | 0 |  |  |  |  | 
Cn1ncc(O)c(C(=O)Nc2cccc(Cl)c2)c1=O [Compound 11] | 48 | 0% | 95 | 31 |  |  |  |  | 
CCn1ncc(O)c(C(=O)Nc2ccc(Cl)nc2)c1=O [Compound 12] |  | 0% | 91 | 93 |  |  |  |  | 
O=C(Nc1ccc(Cl)nc1)c1c(O)cnn(-c2ccccc2)c1=O [Compound 14] | 90 | 0% | 98 | 0 |  |  |  |  | 
Cn1ncc(O)c(C(=O)Nc2cccc(C#N)c2)c1=O [Compound 15] | 16 | 79% | 91 | 0 |  |  |  |  | 
Cc1cc(Cl)ccc1NC(=O)c1c(O)cnn(C)c1=O [Compound 16] | 0 | 91% | 99 | 45 |  |  |  |  | 
Cn1ncc(O)c(C(=O)Nc2ccc(Cl)c(Cl)c2)c1=O [Compound 17] | 0 | 57% | 99 | 0 |  |  |  |  | 
Cn1ncc(O)c(C(=O)Nc2ccc(Cl)c(C(F)(F)F)c2)c1=O [Compound 18] | 0 | 0% | 83 | 46 |  |  |  |  | 
Cn1ncc(O)c(C(=O)Nc2cccc3cccnc23)c1=O [Compound 19] | 0 | 0% | 96 | 0 |  |  |  |  | 
Cn1ncc(O)c(C(=O)Nc2c(F)cccc2F)c1=O [Compound 20] | 0 | 0% | 0 | 0 |  |  |  |  | 
Cn1ncc(O)c(C(=O)NCc2ccc(Cl)cc2)c1=O [Compound 22] |  |  |  |  |  |  |  |  | Test C disease control rating (Botrytis cinerea; 40 ppm): 0%; Test D disease control rating (Phytophthora infestans; 40 ppm): 0%; Test F disease control rating ([1]; 40 ppm): 41%; Test G disease control rating ([2]; 40 ppm): 0%
CN(C(=O)c1c(O)cnn(C)c1=O)c1ccc(Cl)cc1 [Compound 23] |  |  |  |  |  |  |  |  | Test C disease control rating (Botrytis cinerea; 40 ppm): 0%; Test D disease control rating (Phytophthora infestans; 40 ppm): 0%; Test F disease control rating ([1]; 40 ppm): 0%; Test G disease control rating ([2]; 40 ppm): 0%
Cn1ncc(O)c(C(=O)Nc2ccc(Cl)cc2C#N)c1=O [Compound 24] | 99 | 0% | 91 | 0 |  |  |  |  | 
Cn1ncc(O)c(C(=O)Nc2cccc(F)c2)c1=O [Compound 25] | 0 | 0* % | 89 | 0 |  |  |  |  | 
Cn1ncc(O)c(C(=O)Nc2ccccc2-c2cc(F)c(F)c(F)c2)c1=O [Compound 27] |  |  |  |  | 0 | 0 | 98 | 0 | Test A disease control rating (Phakopsora pachyrhizi): 0%; Test E disease control rating (Zymoseptoria tritici; [3]): 0%
Cn1ncc(O)c(C(=O)Nc2ccccc2-c2ccc(Cl)cc2)c1=O [Compound 28] |  |  |  |  | 0 | 0 | 97 | 27 | Test A disease control rating (Phakopsora pachyrhizi): 0%; Test E disease control rating (Zymoseptoria tritici; [3]): 0%
COc1ccc(NC(=O)c2c(Cl)cnn(C)c2=O)cc1 [Compound 30] |  |  |  |  | 0 | 0 | 96 | 0 | Test A disease control rating (Phakopsora pachyrhizi): 60%; Test E disease control rating (Zymoseptoria tritici; [3]): 0%
Cc1ccc(NC(=O)c2c(Cl)cnn(C)c2=O)cc1 [Compound 31] |  |  |  |  | 92 | 0 | 95 | 0 | Test A disease control rating (Phakopsora pachyrhizi): 65%; Test E disease control rating (Zymoseptoria tritici; [3]): 0%
Cn1ncc(Cl)c(C(=O)Nc2ccccc2-c2ccc(F)c(F)c2F)c1=O [Compound 32] |  |  |  |  | 0 | 0 | 96 | 0 | Test A disease control rating (Phakopsora pachyrhizi): 94%; Test E disease control rating (Zymoseptoria tritici; [3]): 0%
Cn1ncc(O)c(C(=O)Nc2ccc(OC(F)(F)F)cc2F)c1=O [Compound 48] |  |  |  |  | 62 | 97 | 99 | 97 | Test E disease control rating (Zymoseptoria tritici; [3]): 96%
Cn1ncc(OS(C)(=O)=O)c(C(=O)Nc2ccc(C(F)(F)F)nc2)c1=O [Compound 94] |  |  |  |  | 0 | 0 | 99 | 52 | Test A disease control rating (Phakopsora pachyrhizi): 77%
Cn1ncc(OS(C)(=O)=O)c(C(=O)Nc2ncc(Cl)cn2)c1=O [Compound 95] |  |  |  |  | 0 | 0 | 68 | 0 | Test A disease control rating (Phakopsora pachyrhizi): 73%
Cn1ncc(OS(=O)(=O)c2ccccc2)c(C(=O)Nc2ccc(OC(F)(F)F)cc2)c1=O [Compound 107] |  |  |  |  | 0 | 96 | 100 | 98 | Test E disease control rating (Zymoseptoria tritici; [3]): 71%

Source: patent publication US20190133128A1, “Fungicidal pyridazinones” (FMC Corporation, priority 2017, published 2019)
